# Experimental data: US9302999B2, “Substituted triazoles as herbicides” (E. I. DU PONT DE NEMOURS AND COMPANY, priority 2012, dated 2016)
# Read-outs that look alike come from different tables or passages of the source.
# How the values were obtained:
# Type in all cases: in vivo
# [1] = test system: sedge, umbrella (small-flower umbrella sedge, Cyperus difformis); assay: Test C flooded paddy test: sedge, umbrella; conditions: scale 0 to 100 (0 no effect, 100 complete control); for pest or weed control at 62 g/ha / pest or weed control at 125 g/ha / pest or weed control at 250 g/ha / pest or weed control at 31 g/ha: Cyperus difformis, read-out: Plant response rating, Sedge, Umbrella
# Summary of the method: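 Rating: visual, 0–100 (100 = complete control), versus untreated controls after 13 to 15 greenhouse days. Treatment went into paddy water held at 3 cm over the soil, on plants grown to two leaves.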
# [2] = test system: canarygrass (Phalaris minor); assay: Test C postemergence: canarygrass
# Source text: (§1) At the same time, plants selected from these crop and weed species and also barley (winter barley, Hordeum vulgare), canarygrass (Phalaris minor), chickweed (common chickweed, Stellaria media) windgrass (Apera spica-venti) and deadnettle (henbit deadnettle, Lamium amplexicaule) were planted in pots containing Redi-Earth® planting medium (Scotts Company, 14111 Scottslawn Road, Marysville, Ohio 43041) comprising spaghnum peat moss, vermiculite, wetting agent and starter nutrients and treated with postemergence applications of test chemicals formulated in the same manner. Plants ranged in height from 2 to 18 cm (1- to 4-leaf stage) for postemergence treatments.
# (§2) Treated plants and controls were maintained in a greenhouse for 13 to 15 days, after which time all species were compared to controls and visually evaluated. Plant response ratings, summarized in Table C, are based on a scale of 0 to 100 where 0 is no effect and 100 is complete control. A dash (-) response means no test result.
# [3] = test system: goosegrass (Eleusine indica); assay: Test C pre-/postemergence: goosegrass; conditions: Postemergence
# Source text: (§3) Seeds of plant species selected from blackgrass (Alopecurus myosuroides), bromegrass, downy (downy bromegrass, Bromus tectorum), foxtail, green (green foxtail, Setaria viridis), ryegrass, Italian (Italian ryegrass, Lolium multiflorum), winter wheat (Triticum aestivum), wild oat (Avena fatua), galium (catchweed bedstraw, Galium aparine), bermudagrass (Cynodon dactylon), surinam grass (Brachiaria decumbens), cocklebur (common cocklebur, Xanthium strumarium), corn (Zea mays), large crabgrass (Digitaria sanguinalis), woolly cupgrass (Eriochloa villosa), foxtail, giant (giant foxtail, Setaria faberii), goosegrass (Eleusine indica), johnsongrass (Sorghum halepense), kochia (Kochia scoparia), lambsquarters (Chenopodium album), morningglory (Ipomoea coccinea), nightshade (eastern black nightshade, Solanum ptycanthum), nutsedge, yellow (yellow nutsedge, Cyperus esculentus), pigweed (Amaranthus retroflexus), ragweed (common ragweed, Ambrosia elation), soybean (Glycine max), common (oilseed) sunflower (Helianthus annuus), Russian thistle (Salsola kali) and velvetleaf (Abutilon theophrasti) were planted into a blend of loam soil and sand and treated preemergence with test chemicals formulated in a non-phytotoxic solvent mixture which included a surfactant.
# as §1, §2
# [4] = test system: cocklebur (common cocklebur, Xanthium strumarium); assay: Test C pre-/postemergence: cocklebur; conditions: Postemergence
# Source text: as §3, §1, §2
# [5] = test system: mustard, wild (wild mustard, Sinapis arvensis); assay: Test D pre-/postemergence: mustard, wild; conditions: Postemergence
# Source text: (§4) Seeds of plant species selected from bluegrass (annual bluegrass, Poa annua), blackgrass (Alopecurus myosuroides), canarygrass (Phalaris minor), chickweed (common chickweed, Stellaria media), galium (catchweed bedstraw, Galium aparine), bromegrass, downy (downy bromegrass, Bromus tectorum), field poppy (Papaver rhoeas), field violet (Viola arvensis), foxtail, green (green foxtail, Setaria viridis), deadnettle (henbit deadnettle, Lamium amplexicaule), ryegrass, Italian (Italian ryegrass, Lolium multiflorum), kochia (Kochia scoparia), lambsquarters (Chenopodium album), oilseed rape (Brassica napus), pigweed (Amaranthus retroflexus), Russian thistle (Salsola iberica), chamomile (scentless chamomile, Matricaria inodora), speedwell (bird's-eye speedwell, Veronica persica), barley, spring (spring barley, Hordeum vulgare), wheat, spring (spring wheat, Triticum aestivum), buckwheat, wild (wild buckwheat, Polygonum convolvulus), mustard, wild (wild mustard, Sinapis arvensis), oat, wild (wild oat, Avena fatua), radish, wild (wild radish, Raphanus raphanistrum), windgrass (Apera spica-venti), barley, winter (winter barley, Hordeum vulgare), and wheat, winter (winter wheat, Triticum aestivum) were planted into a silt loam soil and treated preemergence with test chemicals formulated in a non-phytotoxic solvent mixture which included a surfactant. At the same time, these same crop and weed species were planted in pots containing the planting medium comprising spaghnum peat moss, vermiculite, wetting agent and starter nutrients and treated with postemergence applications of the test chemicals formulated in the same manner. Plants ranged in height from 2 to 18 cm (1- to 4-leaf stage).
# (§5) Treated plants and controls were maintained in a controlled growth environment for 14 to 21 days after which time all species were compared to controls and visually evaluated. Plant response ratings, summarized in Table D, are based on a scale of 0 to 100 where 0 is no effect and 100 is complete control. A dash (-) response means no test result.
# [6] = test system: wheat, winter (winter wheat, Triticum aestivum); assay: Test D pre-/postemergence: wheat, winter; conditions: Postemergence
# Source text: as §4, §5
# [7] = test system: chamomile (scentless chamomile, Matricaria inodora); assay: Test D pre-/postemergence: chamomile; conditions: Postemergence
# Source text: as §4, §5
# [8] = Flood (flooded paddy test), 125 g ai/ha, visual rating after 13 to 15 days
# [9] = Flood (flooded paddy test), 250 g ai/ha, visual rating after 13 to 15 days
# [10] = 16 g ai/ha, scale 0 to 100, 0 no effect, 100 complete control
# [11] = 31 g ai/ha, scale 0 to 100 (0 no effect, 100 complete control)
# [12] = 62 g ai/ha, scale 0 to 100 (0 no effect, 100 complete control)
# [13] = 125 g ai/ha, scale 0 to 100, 0 no effect, 100 complete control
# [14] = 250 g ai/ha, scale 0 to 100 (0 no effect, 100 complete control)
compound,measurement,setting,value
"COc1nn(-c2ccc(C(F)(F)F)cc2)nc1Cn1ccc(C(F)(F)F)n1 [Compound 17, 4-methoxy-2-[4-(trifluoromethyl)phenyl]-5-[[3-(trifluoromethyl)-1H-pyrazol-1-yl]methyl]-2H-1,2,3-triazole]",pest or weed control at 62 g/ha,"[1]; Flood (flooded paddy test), 62 g ai/ha, visual rating after 13 to 15 days",20%
same,pest or weed control at 125 g/ha,[1]; [8],30%
same,pest or weed control at 250 g/ha,[1]; [9],75%
same,pest or weed control at 31 g/ha,"[1]; Flood, 31 g ai/ha",0%
Cc1nn(-c2ccc(C(F)(F)F)cc2)nc1Cc1cccc(C(F)(F)F)c1 [Compound 124],"Plant response rating, Canarygrass",[2]; [10],0
same,"Plant response rating, Canarygrass",[2]; [11],20
same,"Plant response rating, Canarygrass",[2]; [12],35
same,"Plant response rating, Canarygrass",[2]; [13],85
same,"Plant response rating, Goosegrass",[3]; [10],25
same,"Plant response rating, Goosegrass",[3]; [11],45
same,"Plant response rating, Goosegrass",[3]; [12],55
same,"Plant response rating, Goosegrass",[3]; [13],65
same,"Plant response rating, Sedge, Umbrella",[1]; [8],90
same,"Plant response rating, Sedge, Umbrella",[1]; [9],90
same,"Plant response rating, Sedge, Umbrella","[1]; Flood, 31 g ai/ha",50
same,"Plant response rating, Sedge, Umbrella","[1]; Flood, 62 g ai/ha",90
same,"Plant response rating, Cocklebur",[4]; [10],10
same,"Plant response rating, Cocklebur",[4]; [11],15
same,"Plant response rating, Cocklebur",[4]; [12],20
same,"Plant response rating, Cocklebur",[4]; [13],55
"CCc1nn(-c2ccc(C(F)(F)F)cc2)nc1Oc1cccc(OC(F)(F)F)c1 [Compound 125, 4-ethyl-5-[3-(trifluoromethoxy)phenoxy]-2-[4-(trifluoromethyl)phenyl]-2H-1,2,3-triazole]",pest or weed control at 125 g/ha,[1]; [8],80%
same,pest or weed control at 250 g/ha,[1]; [9],85%
same,pest or weed control at 31 g/ha,"[1]; Flood, 31 g ai/ha",0%
same,pest or weed control at 62 g/ha,"[1]; Flood, 62 g ai/ha",40%
Cc1nn(-c2ccnc(C(F)(F)F)c2)nc1Cc1ccnc(C(F)(F)F)c1 [Compound 137],"Plant response rating: Mustard, Wild",[5]; [11],60
same,"Plant response rating: Mustard, Wild",[5]; [12],80
same,"Plant response rating: Mustard, Wild",[5]; [13],95
same,"Plant response rating: Mustard, Wild",[5]; [14],100
same,"Plant response rating, Mustard, Wild","[5]; 16 g ai/ha, scale 0 to 100",50
same,"Plant response rating, Canarygrass",[2]; [11],45
same,"Plant response rating, Canarygrass",[2]; [12],60
same,"Plant response rating, Canarygrass",[2]; [13],70
same,"Plant response rating, Canarygrass","[2]; 250 g ai/ha, scale 0 to 100",75
same,"Plant response rating, Goosegrass",[3]; [11],20
same,"Plant response rating, Goosegrass",[3]; [12],25
same,"Plant response rating, Goosegrass",[3]; [13],65
same,"Plant response rating: Wheat, Winter",[6]; [11],5
same,"Plant response rating: Wheat, Winter",[6]; [12],10
same,"Plant response rating: Wheat, Winter",[6]; [13],15
same,"Plant response rating: Wheat, Winter",[6]; [14],20
same,"Plant response rating, Wheat, Winter","[6]; 16 g ai/ha, scale 0 to 100",5
same,"Plant response rating, Cocklebur",[4]; [11],45
same,"Plant response rating, Cocklebur",[4]; [12],50
same,"Plant response rating, Cocklebur","[4]; 250 g ai/ha, scale 0 to 100",60
same,Plant response rating: Chamomile,[7]; [11],10
same,Plant response rating: Chamomile,[7]; [12],15
same,Plant response rating: Chamomile,[7]; [13],20
same,Plant response rating: Chamomile,[7]; [14],40
same,"Plant response rating, Chamomile","[7]; 16 g ai/ha, scale 0 to 100",0
